The results in this text go back to US11884631B1 (priority 2023, dated 2024).

The test system of series [1] is Mycobacterium tuberculosis H37Rv. Description: Anti-tubercular activity (MIC), susceptible H37Rv strain. Format: cell-based. Conditions: ATCC 25177 / H37Rv, MIC = minimum drug concentration inhibiting growth with no color change in the well, read-out: MIC (μg/mL) Susceptible (H37Rv).

With `Cc1ccc2c(ccc[n+]2CC(=O)c2cc(C(F)(F)F)cc(C(F)(F)F)c2)c1.[Br-]` [Compound 3c, 1-(2-(3,5-Bis(trifluoromethyl)phenyl)-2-oxoethyl)-6-methylquinolin-1-ium bromide], the melting point is 246 to 247 °C. Also, the MIC in series [1] amounted to 16 µg/mL.

In turn, `Cc1ccc2c(ccc[n+]2CC(=O)c2ccccc2[N+](=O)[O-])c1.[Br-]` [Compound 3a, 6-Methyl-1-(2-(2-nitrophenyl)-2-oxoethyl)quinolin-1-ium bromide] gave a melting point of 218 to 219 °C. Besides, the MIC in series [1] was found to be 32 µg/mL.

As for `Cc1ccc2c(ccc[n+]2CC(=O)c2ccc(F)cc2)c1.[Br-]` [Compound 3b, 1-(2-(4-Fluorophenyl)-2-oxoethyl)-6-methylquinolin-1-ium bromide], the melting point was in the range of 206 to 207 °C. In series [1], the MIC amounted to 8 µg/mL.

With `Cc1ccc2c(ccc[n+]2CC(=O)c2ccc(Br)cc2)c1.[Br-]`, the melting point lay within 221 to 222 °C.
